The text below walks through data of patent publication US20260200920A1, “SUBSTITUTED AMINOPYRIDINE COMPOUNDS FOR USE AS AKT1 INHIBITORS” (Atavistik Bio, Inc., priority 2023, published 2026).

Assay [1] concerns the target T1, human recombinant kinase full-length wildtype AKT1 (Homo sapiens, UniProt P31749).
T1 construct: Purified human recombinant kinase full-length wildtype AKT1 was expressed in insect cells; made in house; host or cells: insect cells
The experiment in a line: AKT1 kinase assay (wildtype, TR-FRET, Lance). Format: biochemical. The note with it: 0.6 nM wildtype AKT1, 50 nM Ulight-CREBtide, either 50 μM ATP or 2 mM ATP, 60 min at RT. The essentials:
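Insect-cell-expressed full-length human AKT1, PDPK1-activated (0.6 nM), preincubated with compound 15 min at RT, then reacted 60 min at RT with 50 nM ULight-CREBtide and 50 μM or 2 mM ATP (pH 7.5, 1% DMSO). Phospho-CREBtide read by Eu-anti-phospho-Ser133 TR-FRET (665/620 ratio); IC50 from 10-point 4-parameter fit.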
Background: In TR-FRET formats the signal depends on donor and acceptor labels being close together.

Assay [2] concerns the target T2, human recombinant kinase full-length AKT1 E17K (Homo sapiens, UniProt P31749, E17K).
T2 construct: Purified human recombinant kinase full-length AKT1 E17K was expressed in insect cells; made in house; host or cells: insect cells
The experiment in a line: AKT1 E17K kinase assay (TR-FRET, Lance). Format: biochemical. Conditions: 0.6 nM AKT1 E17K, 50 nM Ulight-CREBtide, either 50 μM ATP or 2 mM ATP, 60 min at RT. The method, boiled down:
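Full-length AKT1 E17K from insect cells, PDPK1-activated, at 0.6 nM with 50 nM Ulight-CREBtide and 50 μM or 2 mM ATP, pH 7.5, 1% DMSO. Enzyme and compound preincubated 15 min, reaction run 60 min at RT; Eu-anti-phospho-CREB (Ser133) TR-FRET 665/620 ratio, 10-point curve, IC50 by 4-parameter fit.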

In general, IC50 refers to the concentration that gives 50% inhibition.

T2 sequence (P31749 whole entry E17K): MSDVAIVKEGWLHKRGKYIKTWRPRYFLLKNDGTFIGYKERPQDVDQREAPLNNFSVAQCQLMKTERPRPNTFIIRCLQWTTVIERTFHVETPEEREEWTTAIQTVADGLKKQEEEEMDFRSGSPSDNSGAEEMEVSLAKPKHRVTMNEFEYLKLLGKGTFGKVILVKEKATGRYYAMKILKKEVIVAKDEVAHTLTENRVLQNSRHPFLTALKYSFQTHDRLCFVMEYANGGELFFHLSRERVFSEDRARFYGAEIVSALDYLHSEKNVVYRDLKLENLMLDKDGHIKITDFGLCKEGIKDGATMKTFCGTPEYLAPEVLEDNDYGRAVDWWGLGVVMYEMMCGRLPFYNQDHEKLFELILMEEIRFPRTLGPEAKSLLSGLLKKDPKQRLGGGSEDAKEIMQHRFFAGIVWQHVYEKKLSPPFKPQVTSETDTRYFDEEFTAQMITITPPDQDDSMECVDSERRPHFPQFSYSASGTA
T1 sequence (P31749 whole entry): as the sequence (P31749 whole entry E17K) above, with K17E counted along it

For the compound `CC(C)(C(=O)O)C1CCN(Cc2ccc(-n3c(-c4cccnc4N)nc4ccc(-c5ccccc5)nc43)cc2)C1` (centres unmarked) [Compound I-105, 2-[1-[[4-[2-(2-amino-3-pyridyl)-5-phenyl-imidazo[4,5-b]pyridin-3-yl]phenyl]methyl]pyrrolidin-3-yl]-2-methyl-propanoic acid], the IC50 was under 20 µM in assay [1] and 0.5 to 2 µM in assay [2].
With `Nc1ncccc1-c1nc2ccc(-c3ccccc3)nc2n1-c1ccc(NC(=O)N2CCC(C(=O)O)CC2)c(F)c1` [Compound I-106, 1-[[4-[2-(2-amino-3-pyridyl)-5-phenyl-imidazo[4,5-b]pyridin-3-yl]-2-fluoro-phenyl]carbamoyl]piperidine-4-carboxylic acid], the IC50 was under 20 µM in assay [1] and 0.5 to 2 µM in assay [2].
On to `Nc1ncccc1-c1nc2ccc(-c3ccccc3)nc2n1-c1ccc(N2CC3(CC(C(=O)O)C3)C2)nc1` [Compound I-107, 2-(5-(2-(2-aminopyridin-3-yl)-5-phenyl-3H-imidazo[4,5-b]pyridin-3-yl)pyridin-2-yl)-2-azaspiro[3.3]heptane-6-carboxylic acid], for which the IC50 in assay [1] was under 20 µM; in assay [2] it was at least 2 µM.
Regarding `Cc1nc(NC(=O)C2CCC(C(=O)O)CC2)ccc1-n1c(-c2cccnc2N)nc2ccc(-c3ccccc3)nc21` (centres unmarked) [Compound I-108, 4-((5-(2-(2-aminopyridin-3-yl)-5-phenyl-3H-imidazo[4,5-b]pyridin-3-yl)-6-methylpyridin-2-yl)carbamoyl)cyclohexane-1-carboxylic acid], the concentration for half-maximal inhibition (IC50) in assay [1] is under 20 µM; in assay [2] it was 0.5 to 2 µM.
`Cc1nc(NC2CCC(C(=O)O)CC2)ccc1-n1c(-c2cccnc2N)nc2ccc(-c3ccccc3)nc21` (centres unmarked) [Compound I-109, 4-((5-(2-(2-aminopyridin-3-yl)-5-phenyl-3H-imidazo[4,5-b]pyridin-3-yl)-6-methylpyridin-2-yl)amino)cyclohexane-1-carboxylic acid]: the IC50 in assay [1] was under 20 µM; in assay [2], 0.5 to 2 µM.
Taken in the same sequence, the figures for `Nc1ncccc1-c1nc2ccc(-c3ccccc3)cc2n1-c1ccc(NC(=O)C2CCC(C(=O)O)C2)nc1` (centres unmarked) [Compound I-110, 3-((5-(2-(2-aminopyridin-3-yl)-6-phenyl-1H-benzo[d]imidazol-1-yl)pyridin-2-yl)carbamoyl)cyclopentane-1-carboxylic acid] were under 20 µM and at least 2 µM.
As for `Nc1ncccc1-c1nc2ccc(-c3ccccc3)cc2n1-c1ccc(NC(=O)C2CCCC(C(=O)O)C2)nc1` (centres unmarked) [Compound I-111, 3-((5-(2-(2-aminopyridin-3-yl)-6-phenyl-1H-benzo[d]imidazol-1-yl)pyridin-2-yl)carbamoyl)cyclohexane-1-carboxylic acid], the results for the IC50 in assay [1] and in assay [2] were under 20 µM and 0.5 to 2 µM, respectively.
For `Nc1ncccc1-c1nc2ccc(-c3ccccc3)nc2n1-c1ccc(NC(=O)C2CC3(CC(C(=O)O)C3)C2)nc1` (centres unmarked) [Compound I-112, 6-((5-(2-(2-aminopyridin-3-yl)-5-phenyl-3H-imidazo[4,5-b]pyridin-3-yl)pyridin-2-yl)carbamoyl)spiro[3.3]heptane-2-carboxylic acid], in that order: under 20 µM and under 0.5 µM.
Taken in the same sequence, the figures for `COC(=O)[C@H]1CC[C@H](C(=O)Nc2ccc(-n3c(-c4cccnc4N)nc4ccc(-c5ccccc5)nc43)cn2)CC1` [Compound I-113, methyl (1r,4r)-4-((5-(2-(2-aminopyridin-3-yl)-5-phenyl-3H-imidazo[4,5-b]pyridin-3-yl)pyridin-2-yl)carbamoyl)cyclohexane-1-carboxylate] were under 20 µM and 0.5 to 2 µM.
Taken in the same sequence, the figures for `Nc1ncccc1-c1nc2ccc(-c3ccccc3)nc2n1-c1ccc(NC[C@H]2CC[C@@H](C(=O)O)CC2)nc1` [Compound I-114, (1s,4s)-4-(((5-(2-(2-aminopyridin-3-yl)-5-phenyl-3H-imidazo[4,5-b]pyridin-3-yl)pyridin-2-yl)amino)methyl)cyclohexane-1-carboxylic acid] were under 20 µM and 0.5 to 2 µM.
For the compound `Nc1ncccc1-c1nc2ccc(-c3ccccc3)nc2n1-c1ccc(NC(=O)[C@H]2CC[C@H](C(N)=O)CC2)nc1` [Compound I-115, (1r,4r)-N-(5-(2-(2-aminopyridin-3-yl)-5-phenyl-3H-imidazo[4,5-b]pyridin-3-yl)pyridin-2-yl)cyclohexane-1,4-dicarboxamide], the IC50 in assay [1] is under 20 µM; in assay [2], under 0.5 µM.
As to `Cn1nccc1-c1ccc2nc(-c3cccnc3N)n(-c3ccc(NC(=O)[C@H]4CC[C@H](C(=O)O)CC4)nc3)c2n1` [Compound I-116, (1r,4r)-4-((5-(2-(2-aminopyridin-3-yl)-5-(1-methyl-1H-pyrazol-5-yl)-3H-imidazo[4,5-b]pyridin-3-yl)pyridin-2-yl)carbamoyl)cyclohexane-1-carboxylic acid], the IC50 in assay [1] was under 20 µM; in assay [2] it was 0.5 to 2 µM.
As for `CC(C)(C)c1ccc2nc(-c3cccnc3N)n(-c3ccc(NC(=O)[C@H]4CC[C@H](C(=O)O)CC4)nc3)c2c1` [Compound I-117, (1r,4r)-4-((5-(2-(2-aminopyridin-3-yl)-6-(tert-butyl)-1H-benzo[d]imidazol-1-yl)pyridin-2-yl)carbamoyl)cyclohexane-1-carboxylic acid], the results for the IC50 in assay [1] and in assay [2] were under 20 µM and at least 2 µM, respectively.
Consider `Cc1nc(NC(=O)[C@H]2CC[C@H](C(=O)O)CC2)ccc1-n1c(-c2cccnc2N)nc2ccc(-c3ccccc3)nc21` [Compound I-118, (1r,4r)-4-((5-(2-(2-aminopyridin-3-yl)-5-phenyl-3H-imidazo[4,5-b]pyridin-3-yl)-6-methylpyridin-2-yl)carbamoyl)cyclohexane-1-carboxylic acid], for which the IC50 in assay [1] is under 20 µM; in assay [2] it was under 0.5 µM.
Take `Nc1ncccc1-c1nc2ccc(C3CCCCC3)nc2n1-c1ccc(NC(=O)[C@H]2CC[C@H](C(=O)O)CC2)nc1` [Compound I-119, (1r,4r)-4-((5-(2-(2-aminopyridin-3-yl)-5-cyclohexyl-3H-imidazo[4,5-b]pyridin-3-yl)pyridin-2-yl)carbamoyl)cyclohexane-1-carboxylic acid]: the IC50 is under 20 µM in assay [1] and 0.5 to 2 µM in assay [2].
On to `Nc1ncccc1-c1nc2ccc(C3CCCC3)nc2n1-c1ccc(NC(=O)[C@H]2CC[C@H](C(=O)O)CC2)nc1` [Compound I-120, (1r,4r)-4-((5-(2-(2-aminopyridin-3-yl)-5-cyclopentyl-3H-imidazo[4,5-b]pyridin-3-yl)pyridin-2-yl)carbamoyl) cyclohexane-1-carboxylic acid], for which the IC50 in assay [1] was under 20 µM; in assay [2], 0.5 to 2 µM.
For `Cc1nc(N[C@H]2CC[C@H](C(=O)O)CC2)ccc1-n1c(-c2cccnc2N)nc2ccc(-c3ccccc3)nc21` [Compound I-121, (1r,4r)-4-((5-(2-(2-aminopyridin-3-yl)-5-phenyl-3H-imidazo[4,5-b]pyridin-3-yl)-6-methylpyridin-2-yl)amino)cyclohexane-1-carboxylic acid], in that order: under 20 µM and under 0.5 µM.
For `NC(=O)N1CCC(C(=O)Nc2ccc(-n3c(-c4cccnc4N)nc4ccc(-c5ccccc5)nc43)cn2)CC1` [Compound I-122, N^4-(5-(2-(2-aminopyridin-3-yl)-5-phenyl-31-imidazo[4,5-b]pyridin-3-yl)pyridin-2-yl)piperidine-1,4-dicarboxamide], in that order: under 20 µM and under 0.5 µM.
Taken in the same sequence, the figures for `Nc1ncccc1-c1nc2ccc(OC(F)(F)F)cc2n1-c1ccc(NC(=O)[C@H]2CC[C@H](C(=O)O)CC2)nc1` [Compound I-123, (1r,4r)-4-((5-(2-(2-aminopyridin-3-yl)-6-(trifluoromethoxy)-1H-benzo[d]imidazol-1-yl)pyridin-2-yl)carbamoyl)cyclohexane-1-carboxylic acid] were under 20 µM and at least 2 µM.
On to `CC(C)Oc1ccc2nc(-c3cccnc3N)n(-c3ccc(NC(=O)[C@H]4CC[C@H](C(=O)O)CC4)nc3)c2c1` [Compound I-124, (1r,4r)-4-((5-(2-(2-aminopyridin-3-yl)-6-isopropoxy-1H-benzo[d]imidazol-1-yl)pyridin-2-yl)carbamoyl)cyclohexane-1-carboxylic acid], for which the half-maximal inhibitory concentration (IC50) was under 20 µM in assay [1] and at least 2 µM in assay [2].
For the compound `Cc1nc(NC(=O)C2CC3(CC(C(=O)O)C3)C2)ccc1-n1c(-c2cccnc2N)nc2ccc(-c3ccccc3)nc21` (centres unmarked) [Compound I-125, 6-((5-(2-(2-aminopyridin-3-yl)-5-phenyl-3H-imidazo[4,5-b]pyridin-3-yl)-6-methylpyridin-2-yl)carbamoyl)spiro[3.3]heptane-2-carboxylic acid], the IC50 in assay [1] was under 20 µM; in assay [2], under 0.5 µM.
Regarding `Cc1nc(-n2c(-c3cccnc3N)nc3ccc(-c4ccccc4)nc32)ccc1NC(=O)C1CC2(CC(C(=O)O)C2)C1` (centres unmarked) [Compound I-126, 6-((6-(2-(2-aminopyridin-3-yl)-5-phenyl-3H-imidazo[4,5-b]pyridin-3-yl)-2-methylpyridin-3-yl)carbamoyl)spiro[3.3]heptane-2-carboxylic acid], the IC50 was under 20 µM in assay [1] and at least 2 µM in assay [2].
